Experimental data published in US20260041679A1, “METHOD OF TREATING HYPERTENSION WITH THE ALDOSTERONE SYNTHASE INHIBITOR BAXDROSTAT” (CINCOR PHARMA, INC., priority 2022, published 2026).
Several values for one entry are separate records, joined by “and”; a condition that tells them apart may be missing. Identical values can stand only once.

Experiments:
aldosterone synthase = molecular target: T1, aldosterone synthase (Homo sapiens, UniProt P19099); test: Study 121: pharmacodynamics, serum and 24-hour urine aldosterone, plasma renin activity, serum cortisol; assay type: in vivo
T1 construct: Pharmacodynamic measurements included plasma aldosterone, cortisol, and electrolytes; endogenous in cells; host or cells: human subjects in vivo (healthy volunteers; resistant hypertension patients)
T1 sequence (P19099 25-503): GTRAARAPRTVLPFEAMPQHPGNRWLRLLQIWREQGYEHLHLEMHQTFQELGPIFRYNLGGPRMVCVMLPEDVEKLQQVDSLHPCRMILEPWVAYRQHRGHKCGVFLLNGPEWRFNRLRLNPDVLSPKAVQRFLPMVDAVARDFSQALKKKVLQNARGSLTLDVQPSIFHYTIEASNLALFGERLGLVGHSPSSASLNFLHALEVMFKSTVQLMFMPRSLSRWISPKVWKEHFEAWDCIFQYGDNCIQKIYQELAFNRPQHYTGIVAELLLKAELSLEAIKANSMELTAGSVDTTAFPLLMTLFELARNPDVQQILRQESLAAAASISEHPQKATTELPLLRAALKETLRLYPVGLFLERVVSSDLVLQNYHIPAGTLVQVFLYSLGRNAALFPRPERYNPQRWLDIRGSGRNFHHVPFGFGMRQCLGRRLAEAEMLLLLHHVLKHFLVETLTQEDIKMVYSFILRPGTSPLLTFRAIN
Text: Blood and urine samples were collected for determination of the pharmacodynamic parameters related to baxdrostat mechanism of aldosterone suppression. Serum concentrations of aldosterone, aldosterone excreted in 24-hour urine collections, plasma renin activity (PRA) and serum cortisol are summarized by dose and by study day as shown in FIGS. 3A-3D. […] These hormonal data provide strong biochemical evidence to support the mechanism by which baxdrostat's inhibition of aldosterone synthesis produces a significant impact on blood pressure levels without lowering serum cortisol levels.

[1] = Relative bioavailability tablet vs oral solution and food effect (Example 3); assay type: in vivo, human; conditions: for Tmax: human, plasma, oral, 5 mg
Protocol: The relative bioavailability of a tablet formulation of baxdrostat was compared to the oral solution of baxdrostat that was administered in the SAD (Example 1) and MAD (Example 2) studies. A single 5 mg dose of each formulation in fourteen healthy volunteers established that plasma levels of baxdrostat were equivalent whether administered using the oral solution or tablet. This study also assessed the effect of a standardized high-fat meal on the PK of baxdrostat.

patients with rHTN = test: Study 121: seated blood pressure in patients with resistant hypertension (Example 8); assay type: in vivo, human; conditions: for DBP decrease: after 12 weeks
Text: This study was a randomized, double-blind, placebo-controlled study to evaluate the efficacy and safety of baxdrostat in patients with rHTN. Patients with rHTN were defined as being on a stable regimen of ≥3 antihypertensive agents, one of which is a diuretic with a mean seated blood pressure (BP)≥130/80 mmHg. […] The secondary objectives were to evaluate the change from baseline in mean seated DBP with each of the selected dose strengths of baxdrostat compared to placebo and to evaluate the percentage of patients achieving a seated BP response<130/80 mmHg with each of the dose strengths of baxdrostat compared to placebo after 12 weeks of treatment. […] The study was planned to enroll 348 patients.
The primary endpoint was the placebo-adjusted change from baseline to week 12 of the mean office SBP. The secondary endpoints included the placebo-adjusted change from baseline to week 12 in seated office DBP, and the percentage of patients achieving a seated BP response<130/80 mmHg with each of the selected dose strengths of baxdrostat compared to placebo after 12 weeks of treatment for rHTN.
The point estimates for the main treatment effect and for the secondary endpoints were generated by mixed model analyses of covariance that included responder status as a fixed effect. […] The change from baseline in mean seated SBP will be analyzed using a mixed model for repeated measures (MMRM) model. The analysis includes fixed effects for treatment, visit, and treatment-by-visit interaction, along with covariates of the baseline mean seated SBP and baseline glomerular filtration rate. The restricted maximum likelihood estimation (REML) approach was used with an unstructured covariance matrix.

For CCC(=O)N[C@@H]1CCCc2c(-c3ccc4c(c3)CCC(=O)N4C)cncc21 [baxdrostat, (R)—N-(4-(1-methyl-2-oxo-1,2,3,4-tetrahydroquinolin-6-yl)-5,6,7,8-tetrahydroisoquinolin-8-yl) propionamide], the urinary aldosterone excretion (aldosterone synthase; 24-hour urine) was “significantly reduced urinary aldosterone excretion”, the “suppression of aldosterone and augmentation of renin activity, male vs female patients” value (aldosterone synthase; in vivo) was “comparable between male and female patients” and the “plasma renin activity (PRA)” value (aldosterone synthase; rHTN patients) was “increased PRA several-fold”. The total serum cortisol (aldosterone synthase; rHTN patients) was “no reduction in total serum cortisol”, the Tmax ([1]; fasted state) was about 3 h and the Tmax ([1]; fed state (high-fat meal)) was about 4 h. The “plasma levels, oral solution vs tablet” value ([1]; single 5 mg dose of each formulation) was “equivalent”, the “effect of high-fat meal on plasma levels” value ([1]; tablet, single 5 mg) was “no noteworthy effect” and the “DBP, LS mean change (SE)” value (patients with rHTN; 0.5 mg QD, 12 weeks) was −8.6 (1.23) mmHg. The “DBP, LS mean difference vs placebo (SE)” value (patients with rHTN; 0.5 mg QD, 12 weeks) was 0.5 (1.74) mmHg, the “SBP, LS mean difference vs placebo (SE)” value (patients with rHTN; 0.5 mg QD, 12 weeks) was −2.7 (2.68) mmHg and the “SBP, LS mean change (SE)” value (patients with rHTN; 0.5 mg QD, 12 weeks, mITT) was −12.1 (1.91) mmHg. The “treatment effect on SBP vs placebo” value (patients with rHTN; 0.5 mg, 12 weeks) was “modestly greater than that of placebo, but this difference did not reach statistical significance”, the DBP decrease (patients with rHTN; 0.5 mg) was 8.6 mmHg and the “DBP, LS mean change (SE)” value (patients with rHTN; 1 mg QD, 12 weeks) was −11.8 (1.26) mmHg. For the same compound, the “DBP, LS mean difference vs placebo (SE)” value (patients with rHTN; 1 mg QD, 12 weeks) was −2.7 (1.75) mmHg, the “SBP, LS mean difference vs placebo (SE)” value (patients with rHTN; 1 mg QD, 12 weeks) was −8.1 (2.7) mmHg and −8.1 (2.72) mmHg and the “SBP, LS mean change (SE)” value (patients with rHTN; 1 mg QD, 12 weeks, mITT) was −17.5 (1.95) mmHg. The “placebo-adjusted SBP decline” value (patients with rHTN; 1 mg, 12 weeks) was 8.1 mmHg, the DBP decrease (patients with rHTN; 1 mg) was 11.8 mmHg and the “DBP, LS mean change (SE)” value (patients with rHTN; 2 mg QD, 12 weeks) was −14.3 (1.31) mmHg. The “DBP, LS mean difference vs placebo (SE)” value (patients with rHTN; 2 mg QD, 12 weeks) was −5.2 (1.79) mmHg, the “SBP, LS mean difference vs placebo (SE)” value (patients with rHTN; 2 mg QD, 12 weeks) was −11.0 (2.78) mmHg and the “SBP, LS mean change (SE)” value (patients with rHTN; 2 mg QD, 12 weeks, mITT) was −20.3 (2.05) mmHg. The “DBP lowered compared to the placebo group” value (patients with rHTN; 2 mg, 12 weeks) was 5.2 mmHg, the “model adjusted, placebo-corrected decline in SBP” value (patients with rHTN; 2 mg, 12 weeks) was 11.0 mmHg and the “reduction in SBP” value (patients with rHTN; 2 mg, 12 weeks) was 20.3 mmHg. For the same compound, the DBP decrease (patients with rHTN; 2 mg) was 14.3 mmHg, the “model adjusted and placebo-corrected change from baseline in SBP” value (patients with rHTN; 2 mg, intent to treat (ITT) analysis set) was −11 mmHg and the “model adjusted and placebo-corrected change from baseline in SBP” value (patients with rHTN; 2 mg, per protocol analysis set) was −11.1 mmHg. The “time course of SBP decrease” value (patients with rHTN; 12 weeks of treatment) was “rapid after treatment started and sustained throughout the 12 weeks of treatment”, the “SBP, LS mean change (SE)” value (patients with rHTN; Female, 0.5 mg) was −10.2 (2.77) and the “SBP, LS mean difference (SE)” value (patients with rHTN; Female, 0.5 mg vs placebo) was 5.1 (4.12). The “SBP, LS mean change (SE)” value (patients with rHTN; Female, 1 mg) was −17.8 (2.74), the “SBP, LS mean difference (SE)” value (patients with rHTN; Female, 1 mg vs placebo) was −2.5 (4.09) and the “SBP, LS mean change (SE)” value (patients with rHTN; Female, 2 mg) was −18.2 (3.01). The “SBP, LS mean difference (SE)” value (patients with rHTN; Female, 2 mg vs placebo) was −2.9 (4.27), the “SBP, LS mean change (SE)” value (patients with rHTN; Hispanic/Latino Female, 0.5 mg) was −15.9 (4.27) and the “SBP, LS mean difference (SE)” value (patients with rHTN; Hispanic/Latino Female, 0.5 mg vs placebo) was 2.2 (5.93). The “SBP, LS mean change (SE)” value (patients with rHTN; Hispanic/Latino Female, 1 mg) was −11.5 (4.80), the “SBP, LS mean difference (SE)” value (patients with rHTN; Hispanic/Latino Female, 1 mg vs placebo) was 6.6 (6.33) and the “SBP, LS mean change (SE)” value (patients with rHTN; Hispanic/Latino Female, 2 mg) was −19.4 (3.59). The “SBP, LS mean difference (SE)” value (patients with rHTN; Hispanic/Latino Female, 2 mg vs placebo) was −1.3 (5.46), the “SBP, LS mean change (SE)” value (patients with rHTN; Hispanic/Latino, 0.5 mg) was −13.3 (2.72) and the “SBP, LS mean difference (SE)” value (patients with rHTN; Hispanic/Latino, 0.5 mg vs placebo) was −1.9 (3.94). The “SBP, LS mean change (SE)” value (patients with rHTN; Hispanic/Latino, 1 mg) was −16.7 (3.43), the “SBP, LS mean difference (SE)” value (patients with rHTN; Hispanic/Latino, 1 mg vs placebo) was −5.4 (4.46) and the “SBP, LS mean change (SE)” value (patients with rHTN; Hispanic/Latino, 2 mg) was −21.8 (2.95). The “SBP, LS mean difference (SE)” value (patients with rHTN; Hispanic/Latino, 2 mg vs placebo) was −10.5 (4.10), the “SBP, LS mean change (SE)” value (patients with rHTN; Male, 0.5 mg) was −13.7 (2.59) and the “SBP, LS mean difference (SE)” value (patients with rHTN; Male, 0.5 mg vs placebo) was −8.0 (3.53). The “SBP, LS mean change (SE)” value (patients with rHTN; Male, 1 mg) was −17.4 (2.76), the “SBP, LS mean difference (SE)” value (patients with rHTN; Male, 1 mg vs placebo) was −11.7 (3.66) and the “SBP, LS mean change (SE)” value (patients with rHTN; Male, 2 mg) was −22.4 (2.73). The “SBP, LS mean difference (SE)” value (patients with rHTN; Male, 2 mg vs placebo) was −16.4 (3.63), the “SBP, LS mean change (SE)” value (patients with rHTN; Not Hispanic/Latino, 0.5 mg) was −10.9 (2.72) and the “SBP, LS mean difference (SE)” value (patients with rHTN; Not Hispanic/Latino, 0.5 mg vs placebo) was −3.1 (3.75). For the same compound, the “SBP, LS mean change (SE)” value (patients with rHTN; Not Hispanic/Latino, 1 mg) was −17.9 (2.41), the “SBP, LS mean difference (SE)” value (patients with rHTN; Not Hispanic/Latino, 1 mg vs placebo) was −10.0 (3.52) and the “SBP, LS mean change (SE)” value (patients with rHTN; Not Hispanic/Latino, 2 mg) was −19.2 (2.86). The “SBP, LS mean difference (SE)” value (patients with rHTN; Not Hispanic/Latino, 2 mg vs placebo) was −11.4 (3.84), the “SBP, LS mean change (SE)” value (patients with rHTN; Other (not Hispanic/Latino Female), 0.5 mg) was −11.1 (2.11) and the “SBP, LS mean difference (SE)” value (patients with rHTN; Other (not Hispanic/Latino Female), 0.5 mg vs placebo) was −4.0 (2.99). The “SBP, LS mean change (SE)” value (patients with rHTN; Other (not Hispanic/Latino Female), 1 mg) was −18.7 (2.13), the “SBP, LS mean difference (SE)” value (patients with rHTN; Other (not Hispanic/Latino Female), 1 mg vs placebo) was −11.6 (3.00) and the “SBP, LS mean change (SE)” value (patients with rHTN; Other (not Hispanic/Latino Female), 2 mg) was −20.9 (2.45). The “SBP, LS mean difference (SE)” value (patients with rHTN; Other (not Hispanic/Latino Female), 2 mg vs placebo) was −13.8 (3.24), the “systolic and diastolic blood pressure” value (patients with rHTN; patients with resistant hypertension, FIGS. 10A and 10B) was “dose-dependent decreases” and the “SBP reduction by subgroup” value (patients with rHTN; subgroup analyses, baseline to Day 85) was “greater reduction in SBP if they were male, white, not Hispanic or Latino, higher eGFR, and baseline SBP value of ≥145 mmHg”.
